Data: patent publication US20210284659A1, “INHIBITORS OF BETA SECRETASE” (Janssen Pharmaceutica NV, priority 2017, published 2021)

What was measured:
[1] = molecular target: recombinant BACE1 protein (Homo sapiens, UniProt P56817); test: BACE1 biochemical FRET based assay; details: 450 min at room temperature, 20 μM substrate, pH 5.0
Text: (§1) This assay is a Fluorescence Resonance Energy Transfer Assay (FRET) based assay. The substrate for this assay is an APP derived 13 amino acids peptide that contains the ‘Swedish’ Lys-Met/Asn-Leu mutation of the amyloid precursor protein (APP) beta-secretase cleavage site. This substrate also contains two fluorophores: (7-methoxycoumarin-4-yl) acetic acid (Mca) is a fluorescent donor with excitation wavelength at 320 nm and emission at 405 nm and 2,4-Dinitrophenyl (Dnp) is a proprietary quencher acceptor. […] Upon cleavage by BACE1, the fluorophore Mca is separated from the quenching group Dnp, restoring the full fluorescence yield of the donor. The increase in fluorescence is linearly related to the rate of proteolysis.
Briefly in a 384-well format recombinant BACE1 protein in a final concentration of 0.04 μg/ml is incubated for 450 minutes at room temperature with 20 μM substrate in incubation buffer (50 mM Citrate buffer pH 5.0, 0.05% PEG) in the presence of compound or DMSO. Next the amount of proteolysis is directly measured by fluorescence measurement (excitation at 320 nm and emission at 405 nm) at different incubation times (0, 30, 60, 90, 120 and 450 min). For every experiment a time curve (every 30 min between 0 min and 120 min) is used to determine the time where we find the lowest basal signal of the high control. The signal at this time (Tx) is used to subtract from the signal at 450 min. Results are expressed in RFU, as difference between T450 and Tx.
(§2) A best-fit curve is fitted by a minimum sum of squares method to the plot of % Controlmin versus compound concentration. From this an IC50 value (inhibitory concentration causing 50% inhibition of activity) can be obtained.

[2] = system: Abeta 1-42 produced and secreted by human neuroblastoma SKNBE2 cells expressing wild type hAPP695; test: Cellular αLisa assay in SKNBE2 cells, Abeta 1-42; assay type: cell-based; details: 18 hours incubation, read-out: Cellular αLisa assay in SKNBE2 cells Abeta 42 pIC50 (converted)
Experimental: In two αLisa assays the levels of Abeta total and Abeta 1-42 produced and secreted into the medium of human neuroblastoma SKNBE2 cells are quantified. The assay is based on the human neuroblastoma SKNBE2 expressing the wild type Amyloid Precursor Protein (hAPP695). The compounds are diluted and added to these cells, incubated for 18 hours and then measurements of Abeta 1-42 and Abeta total are taken. Abeta total and Abeta 1-42 are measured by sandwich αLisa. αLisa is a sandwich assay using biotinylated antibody AbN/25 attached to streptavidin coated beads and antibody Ab4G8 or cAb42/26 conjugated acceptor beads for the detection of Abeta total and Abeta 1-42 respectively. In the presence of Abeta total or Abeta 1-42, the beads come into close proximity. The excitation of the donor beads provokes the release of singlet oxygen molecules that trigger a cascade of energy transfer in the acceptor beads, resulting in light emission. Light emission is measured after 1 hour incubation (excitation at […] and emission at 615 nm).
as §2

[3] = molecular target: T1, recombinant BACE2 protein (Homo sapiens, UniProt Q9Y5Z0); test: BACE2 biochemical FRET based assay; details: 450 min at room temperature, 10 μM substrate, pH 5.0
T1 sequence (Q9Y5Z0 63-518): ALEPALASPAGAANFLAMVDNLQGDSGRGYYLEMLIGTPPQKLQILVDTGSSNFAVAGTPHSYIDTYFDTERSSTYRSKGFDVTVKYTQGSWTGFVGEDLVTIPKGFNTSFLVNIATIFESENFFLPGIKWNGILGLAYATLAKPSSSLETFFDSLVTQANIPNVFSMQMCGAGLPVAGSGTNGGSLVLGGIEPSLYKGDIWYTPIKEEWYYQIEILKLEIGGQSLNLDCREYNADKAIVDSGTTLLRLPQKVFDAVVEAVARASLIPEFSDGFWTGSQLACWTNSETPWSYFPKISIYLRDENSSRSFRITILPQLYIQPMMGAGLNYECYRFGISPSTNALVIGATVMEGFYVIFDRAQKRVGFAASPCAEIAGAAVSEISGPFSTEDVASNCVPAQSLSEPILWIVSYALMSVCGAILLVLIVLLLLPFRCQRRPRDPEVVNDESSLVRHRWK
Text: as §1, with “assay” for “assay is an APP derived 13 amino acids peptide that”, “the beta-secretase,” for “BACE1,”
Briefly in a 384-well format recombinant BACE2 protein in a final concentration of 0.4 μg/ml is incubated for 450 minutes at room temperature with 10 μM substrate in incubation buffer (50 mM Citrate buffer pH 5.0, 0.05% PEG, no DMSO) in the absence or presence of compound. Next the amount of proteolysis is directly measured by fluorescence measurement at T=0 and T=450 (excitation at 320 nm and emission at 405 nm). Results are expressed in RFU (Relative Fluorescence Units), as difference between T450 and TO.
as §2

β-secretase I (BACE1) = β-secretase I (BACE1) (Homo sapiens, UniProt P56817); test: Automated (CyclOps) biochemical assay BACE1; details: 37 °C, 60 min, pH 5.0; read-out: Automated assay BACE1 pIC50 (converted)
Experimental: (§3) Unless otherwise indicated all biochemicals were purchased from Sigma-Aldrich Chemical Company, Poole, Dorset, U.K. and non-aqueous solvents, of analytical or higher grade, were purchased from ThermoFisher Scientific, Loughborough, U.K. MilliQ water (Elix 5 & MilliQ Gradient; Merck Millipore) was used as the base aqueous solvent to make up the biological buffers. Base assay buffer was prepared by adding a 50 mM solution of citric acid (1.00244; Merck Biosciences) to stirring solution of 50 mM trisodium citrate (1.06448; Merck Biosciences) until a final pH of 5.0 was achieved. […] All assays were routinely carried out in 384-well assay plates (Costar 4514; Corning Life Sciences) and incubated at 37±1° C. for 60 min. prior to reading the endpoint fluorescence intensity. The (7-methoxyl coumarin-4-yl)acetic acid based substrate 0-secretase substrate VI (M2465; Bachem) was prepared as a 1 mM stock in 100% DMSO (D/4121/PB08; ThermoFisher). Assay buffer was prepared by adding DMSO to base buffer to a final concentration of 1% (vol./vol.). β-secretase I (18.64 μM; “BACE1”) and β-secretase II (4.65 μM; “BACE2”) were obtained from Janssen Pharmaceutica, Beerse, Belgium and were stored as frozen aliquots (˜20 μl) and thawed as required.
(§4) The CyclOps bioassay module consisted of a fraction collection station, a reagent station, liquid handling robotics, plate store and an integrated plate reader (SpectraMAX Paradigm, TUNE cartridge, SoftMax Pro v 6.3; Molecular Devices). The fraction collection station composed of a 384 well collection plate (P-384-240SQ-C; Axygen, Union City, Calif., USA) mounted on a H-portal carriage (Festo AG & Co. KG, Esslingen, Germany), a syringe drive and a two-way six port injection valve fitted with a 200 μl loop (VICI AG International, Schenkon Switzerland). The output of the injection valve was addressable to all the positions of a 384 well collection plate. The reagent station consisted of hydraulically cooled (10-12° C.) aluminium segments; each manufactured to house a SBS microtiter plate footprint. Independent addressable reagent stations were housed within these sections. Where required, custom aluminium housings were used to accommodate standard laboratory plastic ware (e.g. Eppendorf tubes, Falcon tubes, etc.). As and when required the reagent reservoirs were covered and the lids contained holes through which the Teflon-coated probe could access solutions. The reagents present on the liquid handling system were: • Probe wash solution (˜150 ml; 33.3:33.3:33.3 water:propan-2-ol (P/7508/17; ThermoFisher):methanol (M/4058/17; ThermoFisher) contained in a covered reagent reservoir (390007; Porvair Sciences Ltd., Leatherhead, UK). • Assay buffer solution • HPLC grade water • 40 nM BACE1 diluted in base buffer contained in a 5 ml Eppendorf tube (0030 119.401; Eppendorf) • 400 nM BACE2 diluted in 25 mM tris (648311; Merck Biosciences, Nottingham, U.K.), pH 7.5 containing 100 mM sodium chloride and 20% glycerol (16374; USB Corp., Cleveland, Ohio, USA) contained in a 1.5 ml Eppendorf tube (0030 000.919; Eppendorf) • 1 mM substrate in 100% DMSO contained in a 1.5 ml Eppendorf tube (maintained at ambient temperature) • Two empty 1.5 ml Eppendorf tubes
(§5) The liquid handling system composed of a LISSY system (Zinsser Analytik GmbH, Frankfurt, Germany) equipped with gripper arm and single teflon-coated stainless steel probe. […]

β-secretase II (BACE2) = molecular target: T2, β-secretase II (BACE2) (Homo sapiens, UniProt Q9Y5Z0); test: Automated (CyclOps) biochemical assay BACE2; details: 37 °C, 60 min, pH 5.0; read-out: Automated assay BACE2 pIC50 (converted)
T2 sequence (Q9Y5Z0 63-518): T1 sequence (Q9Y5Z0 63-518)
Experimental: as §3, §4, §5

Chain of β-secretase I (BACE1) (P56817 46-501): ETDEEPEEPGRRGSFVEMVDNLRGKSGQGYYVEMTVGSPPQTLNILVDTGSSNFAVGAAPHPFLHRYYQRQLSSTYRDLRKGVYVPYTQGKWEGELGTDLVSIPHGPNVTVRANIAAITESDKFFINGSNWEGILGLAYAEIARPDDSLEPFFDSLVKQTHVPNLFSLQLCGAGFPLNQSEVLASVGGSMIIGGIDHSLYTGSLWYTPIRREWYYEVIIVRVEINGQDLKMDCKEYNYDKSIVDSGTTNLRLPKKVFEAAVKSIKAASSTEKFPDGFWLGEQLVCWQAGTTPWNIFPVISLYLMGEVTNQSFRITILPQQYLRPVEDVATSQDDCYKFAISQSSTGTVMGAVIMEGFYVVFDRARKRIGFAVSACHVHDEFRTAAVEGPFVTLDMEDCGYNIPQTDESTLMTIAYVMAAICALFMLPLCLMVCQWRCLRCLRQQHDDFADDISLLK
Chain of recombinant BACE1 protein (P56817 46-501): as above

Biochemical FRET based assay pIC50 [1]	IC50 [2] [µM]	Biochemical FRET based assay pIC50 [3]	IC50 (β-secretase I (BACE1)) [µM]	IC50 (β-secretase II (BACE2)) [µM]	Compound
8.52	0.000759	8.18			COc1ncc(CC2CCOCC2)c2c1C[C@]1(c3ccc(F)cc3F)N=C(N)SC[C@@H]1C2 [Compound 1]
8.23	0.00263	7.36			COc1ncc(Cc2c(C)noc2C)c2c1C[C@]1(c3ccc(F)cc3F)N=C(N)SC[C@@H]1C2 [Compound 2]
			0.0229	0.355	COc1ncc(Cc2ccccc2C)c2c1C[C@]1(c3ccc(F)cc3F)N=C(N)SC[C@@H]1C2 [Compound 3]
7.64	0.0676	7.1	0.049	0.204	COc1ccc(Cc2cnc(OC)c3c2C[C@H]2CSC(N)=N[C@@]2(c2ccc(F)cc2F)C3)cc1 [Compound 5]
			0.0759	0.191	COc1cccc(Cc2cnc(OC)c3c2C[C@H]2CSC(N)=N[C@@]2(c2ccc(F)cc2F)C3)c1 [Compound 6]
			0.0617	0.11	COc1ncc(Cc2cccc(Cl)c2)c2c1C[C@]1(c3ccc(F)cc3F)N=C(N)SC[C@@H]1C2 [Compound 7]
			0.195	0.219	COc1cc(Cc2cnc(OC)c3c2C[C@H]2CSC(N)=N[C@@]2(c2ccc(F)cc2F)C3)cc(OC)c1 [Compound 8]
7.99	0.0427	6.56			COc1ncc(Cc2c(C)cccc2C)c2c1C[C@]1(c3ccc(F)cc3F)N=C(N)SC[C@@H]1C2 [Compound 9]
